Experimental data reported in patent US20240325364A1, “COMPOSITIONS FOR USE IN THE TREATMENT OF METABOLIC SYNDROME” (Nottingham Trent University, priority 2021, published 2024).
“Also recorded” adds a separate entry of the source.

Experiments:
[1] = tested on: C2C12 skeletal muscle cells; experiment: Glucose uptake (2-deoxy glucose) in C2C12 skeletal muscle cells; assay type: cell-based; conditions: C2C12 cells 5 days in GLT DMEM medium with 100 μM compound; 100 nM insulin 1 h
Protocol: C2C12 skeletal muscle cell myotubes were cultured for 5 days in standard DMEM tissue culture media or GLT DMEM media. The media were either used without further supplementation (used as controls) or were independently supplemented with 100 μM of a compound (M4, M8, M14, M28, and M38 investigated). Myotubes were then serum-starved overnight in DMEM supplemented with 5 mM glucose, and thereafter incubated for 1 h in glucose-free DMEM or in glucose-free DMEM supplemented with 100 nM insulin stimulant. The media were thereafter replaced with phosphate buffered saline (PBS) containing 0.125 mM 2-deoxy glucose (2-DG). Glucose uptake reactions were conducted for 30 min, and then terminated by addition of stop buffer (0.4 M HCl+2% dodecyl trimethyl ammonium bromide). 2-deoxyglucose-6-phosphate (2DG6P) detection reagent was applied, and data were acquired using a CLARIOStar luminometer (BMG Labtech, Ortenberg, Germany).

[2] = tested on: C2C12 skeletal muscle cells; experiment: Reactive species scavenging in C2C12 cells (DCFDA fluorescence); assay type: cell-based; conditions: C2C12 cells in GLT RPMI-1640 medium 5 days, 100 μM compound
Protocol: C2C12 muscle cell myotubes were cultured for 5 days in standard RPMI-1640 tissue culture media or GLT RPMI-1640 media. Corresponding media were independently supplemented with 100 μM of a compound (M4, M14, M8, M28, and M38 investigated). Non-supplemented standard and GLT RPMI-1640 media were also retained as controls. Cells were thereafter washed 3 times in KRB and 20 μM 2′,7′-dichlorofluorescein diacetate (DCFDA), a cell permeant fluorogenic dye that measures hydroxyl, peroxyl and other ROS, was loaded for 1 h. Reactive species detection was measured via fluorescence, with excitation at 495 nm and emission at 530 nm.

[3] = tested on: C2C12 skeletal muscle cells; experiment: Toxicity testing: C2C12 cell viability (Calcein AM fluorescence); assay type: cell-based; conditions: C2C12 myotubes cultured 5 days in GLT RPMI-1640 medium (28 mM glucose, 200 μM palmitic acid, 200 μM oleic acid) with 100 μM compound
Protocol: C2C12 muscle cell myotubes were cultured for 5 days in the following […] culture media: a control RPMI-1640 medium; glucolipotoxic (GLT) RPMI-1640 medium (28 mM glucose, 200 μM palmitic acid and 200 μM oleic acid) supplemented with 100 μM of M4; GLT RPMI-1640 medium supplemented with 100 µM of M8; GLT RPMI-1640 medium supplemented with 100 μM of M14; GLT RPMI-1640 medium supplemented with 100 μM of M28; and GLT RPMI-1640 medium supplemented with 100 μM of M38. Following culture, media were aspirated and cells washed 3 times in Krebs-Ringer buffer (KRB). A final concentration of […] Calcein AM Cell Viability Dye (ThermoFischer) in KRB was loaded for 1 h before washing again with KRB. Cell viability was measured via fluorescence, with excitation and emission at 490 nm and 520 nm, respectively.

High fat-fed mice = experiment: Effect on body weight in an in vivo model of obesity; conditions: high fat diet mice, 45 mg/kg body weight/day via drinking water, 10 weeks
Protocol: High fat-fed mice were used as an animal model of obesity. The body weights of the mice were monitored over a period of 10 weeks. The following three sets of mice were used in the study: • Non-high fat-fed mice that were administered a normal diet. • High fat-fed mice that were administered a high fat diet. • High fat-fed mice that were administered a high fat diet alongside 45 mg/kg body weight/day of compound M8, which was administered via drinking water.
High fat-fed mice were fed the following high fat diet from Research Diets: (60% fat; D12492). Non-high fat-fed mice were used as a control and were fed the following low fat diet from Research Diets: (10% fat, D12450B). The body weights of the mice were measured throughout.

OCc1ccc(Cn2ccnc2)cc1 [M38, [4-(1H-imidazol-1-ylmethyl)phenyl]methanol]
insulin-stimulated glucose uptake per total cellular protein [1]: reverse glucolipotoxic inhibition of insulin-stimulated glucose uptake
intracellular reactive species (% change relative to control) [2]: reduces GLT-associated reactive species levels
cell viability (% change relative to control) [3]: none of the tested compounds (M4, M8, M14, M28, and M38) reduce C2C12 skeletal muscle cell viability; also recorded: non-toxic to the cells

FC(F)(F)c1ccc(-n2ccnc2)nc1 [M4, 2-(1H-imidazol-1-yl)-5-(trifluoromethyl)pyridine]
insulin-stimulated glucose uptake per total cellular protein [1]: reverse glucolipotoxic inhibition of insulin-stimulated glucose uptake
intracellular reactive species (% change relative to control) [2]: reduces GLT-associated reactive species levels
cell viability (% change relative to control) [3]: none of the tested compounds (M4, M8, M14, M28, and M38) reduce C2C12 skeletal muscle cell viability; also recorded: non-toxic to the cells

CNCc1cc(-c2ccccc2)no1 [M14, 5-[(methylamino)methyl]-3-phenylisoxazole]
insulin-stimulated glucose uptake per total cellular protein [1]: reverse glucolipotoxic inhibition of insulin-stimulated glucose uptake
intracellular reactive species (% change relative to control) [2]: reduces GLT-associated reactive species levels
cell viability (% change relative to control) [3]: none of the tested compounds (M4, M8, M14, M28, and M38) reduce C2C12 skeletal muscle cell viability; also recorded: non-toxic to the cells

CNCc1ccc(-c2ccco2)nc1 [M8, 6-(2-furanyl)-N-methyl-3-pyridinemethanamine]
insulin-stimulated glucose uptake per total cellular protein [1]: reverse glucolipotoxic inhibition of insulin-stimulated glucose uptake
intracellular reactive species (% change relative to control) [2]: reduces GLT-associated reactive species levels
cell viability (% change relative to control) [3]: none of the tested compounds (M4, M8, M14, M28, and M38) reduce C2C12 skeletal muscle cell viability; also recorded: non-toxic to the cells
toxic effects on the animals (High fat-fed mice): no toxic effects on the animals
body weight (High fat-fed mice; vs high fat-fed mice without compound, 45 mg/kg/day): significantly reduces the body weight; also recorded: significant reduction of body weight

NCc1cc(-c2ccccc2)no1 [M28, (3-phenyl-5-isoxazolyl)methanamine]
insulin-stimulated glucose uptake per total cellular protein [1]: reverse glucolipotoxic inhibition of insulin-stimulated glucose uptake
intracellular reactive species (% change relative to control) [2]: reduces GLT-associated reactive species levels
cell viability (% change relative to control) [3]: none of the tested compounds (M4, M8, M14, M28, and M38) reduce C2C12 skeletal muscle cell viability; also recorded: non-toxic to the cells
